Laboratory results taken from ChEMBL document CHEMBL5257103, “Identification of small molecule inhibitors against MMP-14 via High-Throughput screening” (Bioorg Med Chem, 2023).
Calls of active or inactive are those of the source. The calls are words filed in the database; no cut-off is given here.

Columns and labels:
[1] = molecular target: 72 kDa type IV collagenase (Mus musculus) (UniProt P33434); experiment: Inhibition of MMP-2 in mouse fibroblast assessed as reduction in concanavalin-induced MMP-2 activity by measuring gelatin digestion incubated for 24 hrs by SDS-PAGE gel electrophoresis based gelatin zymography analysis; type: cell-based
[2] = molecular target: T1, Matrix metalloproteinase-14 (Homo sapiens, UniProt P50281); experiment: Inhibition of MMP-14 (unknown origin) using 5-FAM-TDVPNGFHVS (QXL520)-NH2 as fluorogenic substrate at 12.5 to 200 uM preincubated for 10 mins followed by substrate addition and measured for 50 mins by microplate reader assay; conditions: dose 12.5-200 µM, time 60.0 min
[3] = molecular target: T1, Matrix metalloproteinase-14; experiment: Inhibition of MMP-14 (unknown origin) using 5-FAM-TDVPNGFHVS (QXL520)-NH2 as fluorogenic substrate preincubated for 10 mins followed by substrate addition and measured for 50 mins by microplate reader assay
[4] = molecular target: T1, Matrix metalloproteinase-14; experiment: Inhibition of MMP-14 (unknown origin) using 5-FAM-TDVPNGFHVS (QXL520)-NH2 as fluorogenic substrate at 47.6 uM preincubated for 10 mins followed by substrate addition by primary HTS analysis relative to control
[5] = molecular target: 72 kDa type IV collagenase (Homo sapiens) (UniProt P08253); experiment: Inhibition of MMP-2 (unknown origin) using QXL520-gamma-Abu-Pro-Cha-Abu-Smc-His-Ala-Dab(5-FAM)-Ala-Lys-NH2 as fluorogenic substrate at 1 to 100 uM preincubated for 10 mins followed by substrate addition and measured for 25 mins by microplate reader assay; conditions: dose 1-100 µM, time 35.0 min
[6] = molecular target: T2, Matrix metalloproteinase-9 (Homo sapiens, UniProt P14780); experiment: Inhibition of MMP-9 (unknown origin) using QXL520-gamma-Abu-Pro-Cha-Abu-Smc-His-Ala-Dab(5-FAM)-Ala-Lys-NH2 as fluorogenic substrate preincubated for 10 mins followed by substrate addition and measured for 25 mins by microplate reader assay
[7] = molecular target: T1, Matrix metalloproteinase-14; experiment: Binding affinity to […] sensor chip immobilized MMP-14 catalytic domain (unknown origin) assessed as equilibrium dissociation constant by surface plasmon resonance analysis
[8] = Cytotoxicity against human HUVEC cells assessed as cell viability upto 100 uM incubated for 4 hrs by MTS assay; type: toxicity, cell-based; conditions: read-out: Activity
[9] = molecular target: T3, Collagenase 3 (Homo sapiens, UniProt P45452); experiment: Inhibition of MMP-13 (unknown origin) using QXL520-gamma-Abu-Pro-Cha-Abu-Smc-His-Ala-Dab(5-FAM)-Ala-Lys-NH2 as fluorogenic substrate preincubated for 10 mins followed by substrate addition and measured for 25 mins by microplate reader assay
[10] = molecular target: T4, Matrilysin (Homo sapiens) (UniProt P09237); experiment: Inhibition of MMP-7 (unknown origin) using QXL520-gamma-Abu-Pro-Cha-Abu-Smc-His-Ala-Dab(5-FAM)-Ala-Lys-NH2 as fluorogenic substrate at 1 to 100 uM preincubated for 10 mins followed by substrate addition and measured for 25 mins by microplate reader assay; conditions: dose 1-100 µM, time 35.0 min
T4 sequence (whole entry): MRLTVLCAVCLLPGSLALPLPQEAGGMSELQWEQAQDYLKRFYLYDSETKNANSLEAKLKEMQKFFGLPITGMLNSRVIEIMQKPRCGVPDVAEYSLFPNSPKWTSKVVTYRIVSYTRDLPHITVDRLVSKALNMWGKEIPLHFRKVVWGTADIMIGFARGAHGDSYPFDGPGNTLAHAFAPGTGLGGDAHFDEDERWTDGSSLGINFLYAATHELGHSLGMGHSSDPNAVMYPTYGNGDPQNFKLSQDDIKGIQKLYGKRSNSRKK

[11] = molecular target: T4, Matrilysin (Homo sapiens); experiment: Inhibition of MMP-7 (unknown origin) using QXL520-gamma-Abu-Pro-Cha-Abu-Smc-His-Ala-Dab(5-FAM)-Ala-Lys-NH2 as fluorogenic substrate at 100 uM preincubated for 10 mins followed by substrate addition and measured for 25 mins by microplate reader assay; conditions: time 35.0 min
[12] = molecular target: T3, Collagenase 3; experiment: Inhibition of MMP-13 (unknown origin) using QXL520-gamma-Abu-Pro-Cha-Abu-Smc-His-Ala-Dab(5-FAM)-Ala-Lys-NH2 as fluorogenic substrate at 100 uM preincubated for 10 mins followed by substrate addition and measured for 25 mins by microplate reader assay; conditions: time 35.0 min
[13] = molecular target: 72 kDa type IV collagenase (Homo sapiens) (UniProt P08253); experiment: Inhibition of MMP-2 (unknown origin) using QXL520-gamma-Abu-Pro-Cha-Abu-Smc-His-Ala-Dab(5-FAM)-Ala-Lys-NH2 as fluorogenic substrate at 100 uM preincubated for 10 mins followed by substrate addition and measured for 25 mins by microplate reader assay; conditions: time 35.0 min
[14] = molecular target: T2, Matrix metalloproteinase-9; experiment: Inhibition of MMP-9 (unknown origin) using QXL520-gamma-Abu-Pro-Cha-Abu-Smc-His-Ala-Dab(5-FAM)-Ala-Lys-NH2 as fluorogenic substrate at 1 to 100 uM preincubated for 10 mins followed by substrate addition and measured for 25 mins by microplate reader assay; conditions: dose 1-100 µM, time 35.0 min
[15] = molecular target: T2, Matrix metalloproteinase-9; experiment: Inhibition of MMP-9 (unknown origin) using QXL520-gamma-Abu-Pro-Cha-Abu-Smc-His-Ala-Dab(5-FAM)-Ala-Lys-NH2 as fluorogenic substrate at 100 uM preincubated for 10 mins followed by substrate addition and measured for 25 mins by microplate reader assay; conditions: time 35.0 min
[16] = molecular target: T3, Collagenase 3; experiment: Inhibition of MMP-13 (unknown origin) using QXL520-gamma-Abu-Pro-Cha-Abu-Smc-His-Ala-Dab(5-FAM)-Ala-Lys-NH2 as fluorogenic substrate at 1 to 100 uM preincubated for 10 mins followed by substrate addition and measured for 25 mins by microplate reader assay; conditions: dose 1-100 µM, time 35.0 min

Sequence of 72 kDa type IV collagenase (Homo sapiens) (P08253 110-660 limits assumed): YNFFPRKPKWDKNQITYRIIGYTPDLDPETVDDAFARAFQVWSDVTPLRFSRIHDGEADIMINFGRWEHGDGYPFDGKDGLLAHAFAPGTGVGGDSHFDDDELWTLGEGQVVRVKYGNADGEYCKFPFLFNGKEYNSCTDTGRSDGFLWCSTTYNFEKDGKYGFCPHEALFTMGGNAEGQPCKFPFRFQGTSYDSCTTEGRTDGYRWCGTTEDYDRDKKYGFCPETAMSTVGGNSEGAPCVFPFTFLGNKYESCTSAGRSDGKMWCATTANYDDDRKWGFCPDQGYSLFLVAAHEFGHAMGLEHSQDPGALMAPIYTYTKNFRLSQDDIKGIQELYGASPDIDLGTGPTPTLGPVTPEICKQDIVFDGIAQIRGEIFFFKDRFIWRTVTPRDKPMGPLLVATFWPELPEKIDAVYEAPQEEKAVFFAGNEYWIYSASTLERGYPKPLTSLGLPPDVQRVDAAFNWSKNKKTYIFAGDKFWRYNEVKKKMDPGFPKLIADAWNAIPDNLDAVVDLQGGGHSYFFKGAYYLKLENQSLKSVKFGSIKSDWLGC
T2 sequence (P14780 whole entry, the tested form may be a part): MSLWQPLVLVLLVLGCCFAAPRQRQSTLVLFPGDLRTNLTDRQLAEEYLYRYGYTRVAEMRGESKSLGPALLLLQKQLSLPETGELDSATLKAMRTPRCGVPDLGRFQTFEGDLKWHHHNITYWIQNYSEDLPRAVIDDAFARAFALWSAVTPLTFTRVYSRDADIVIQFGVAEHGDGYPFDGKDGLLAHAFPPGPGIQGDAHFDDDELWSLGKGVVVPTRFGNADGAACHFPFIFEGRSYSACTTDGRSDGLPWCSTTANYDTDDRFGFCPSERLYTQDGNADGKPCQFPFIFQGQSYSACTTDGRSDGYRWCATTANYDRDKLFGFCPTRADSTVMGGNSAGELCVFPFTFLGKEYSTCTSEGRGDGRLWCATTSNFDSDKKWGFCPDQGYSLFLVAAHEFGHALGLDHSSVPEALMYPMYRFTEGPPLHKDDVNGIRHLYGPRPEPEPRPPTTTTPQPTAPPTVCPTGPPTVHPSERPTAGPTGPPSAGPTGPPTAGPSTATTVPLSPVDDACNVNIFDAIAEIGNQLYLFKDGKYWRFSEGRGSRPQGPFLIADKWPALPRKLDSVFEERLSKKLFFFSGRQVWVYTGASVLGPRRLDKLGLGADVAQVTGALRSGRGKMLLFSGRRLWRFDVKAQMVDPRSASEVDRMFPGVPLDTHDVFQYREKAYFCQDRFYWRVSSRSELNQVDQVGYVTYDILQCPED
Sequence of 72 kDa type IV collagenase (Mus musculus) (P33434 whole entry): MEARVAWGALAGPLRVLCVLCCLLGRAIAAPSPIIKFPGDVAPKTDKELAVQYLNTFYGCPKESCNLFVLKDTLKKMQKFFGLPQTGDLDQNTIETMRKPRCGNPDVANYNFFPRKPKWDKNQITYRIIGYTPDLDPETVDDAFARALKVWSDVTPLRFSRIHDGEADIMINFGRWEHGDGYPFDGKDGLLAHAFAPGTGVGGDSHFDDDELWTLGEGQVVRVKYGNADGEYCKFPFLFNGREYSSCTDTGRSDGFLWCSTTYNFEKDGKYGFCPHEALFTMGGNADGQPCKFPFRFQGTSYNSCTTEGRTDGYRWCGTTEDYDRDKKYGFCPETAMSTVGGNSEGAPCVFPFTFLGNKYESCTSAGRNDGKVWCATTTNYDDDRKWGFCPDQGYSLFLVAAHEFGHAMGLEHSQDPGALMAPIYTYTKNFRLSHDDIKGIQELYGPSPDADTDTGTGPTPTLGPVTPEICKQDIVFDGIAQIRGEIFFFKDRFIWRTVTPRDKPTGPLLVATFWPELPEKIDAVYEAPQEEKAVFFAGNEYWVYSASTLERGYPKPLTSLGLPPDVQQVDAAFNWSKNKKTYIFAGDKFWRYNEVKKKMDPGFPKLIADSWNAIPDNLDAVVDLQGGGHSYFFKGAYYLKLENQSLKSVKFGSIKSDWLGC

SMILES	inhibition [1]	inhibition [2]	IC50 [3] [µM]	inhibition [4]	inhibition [5]	IC50 [6] [µM]	Kd [7] [µM]	viability at 4 h, up to 100 µM [8] [%]	IC50 [9] [µM]	inhibition [10]	inhibition [11] [%]	inhibition [12] [%]	inhibition [13] [%]	inhibition [14]	inhibition [15] [%]	inhibition [16]
Nc1cc(Cl)c2cccnc2c1O	Active	Dose-Dependent Effect	71.2	–	–	–	–	–	–	–	–	–	–	–	–	–
CCCC(C)C1(CC)C(=O)NC(=O)NC1=O (stereo unspecified)	–	–	–	> 85%	–	–	–	–	–	–	–	–	–	–	–	–
Oc1c(Cl)cc(Cl)c2cccnc12 [CHLOROXINE]	Active	–	25.6	Active	inactive	15.9	2.4	> 95	19.6	inactive	–	–	–	–	–	–
Oc1c(I)cc(Cl)c2cccnc12 [CLIOQUINOL]	Active	–	26.9	83%	inactive	–	1.2	> 95	–	inactive	< 5	< 5	< 5	inactive	< 5	inactive
